Values of other authors in patent publication US20220184087A1, “METHODS AND COMPOSITIONS RELATING TO TREATMENT OF CANCER” (The Penn State Research Foundation, priority 2019, published 2022).

How the values were obtained:
melanoma = melanoma patients
MDM4 = molecular target: T1, MDM4 (Homo sapiens, UniProt O15151); details: within p53-binding pocket
T1 sequence (O15151 1-490): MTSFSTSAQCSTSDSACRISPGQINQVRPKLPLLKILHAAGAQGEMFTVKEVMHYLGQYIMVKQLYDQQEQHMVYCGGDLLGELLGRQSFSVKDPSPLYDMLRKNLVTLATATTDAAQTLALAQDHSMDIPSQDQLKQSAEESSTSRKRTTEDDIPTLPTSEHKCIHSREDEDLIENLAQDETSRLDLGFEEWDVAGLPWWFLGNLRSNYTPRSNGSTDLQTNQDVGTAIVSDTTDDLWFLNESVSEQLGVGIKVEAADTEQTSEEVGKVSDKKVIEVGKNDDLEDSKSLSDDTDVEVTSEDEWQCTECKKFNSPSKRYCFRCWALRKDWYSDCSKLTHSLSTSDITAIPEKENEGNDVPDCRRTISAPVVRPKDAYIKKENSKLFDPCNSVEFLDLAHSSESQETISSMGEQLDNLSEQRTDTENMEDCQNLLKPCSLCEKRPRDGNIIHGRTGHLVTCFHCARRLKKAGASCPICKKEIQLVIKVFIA

[1] = system: murine head and neck cancer cells
[2] = system: human head and neck cancer cells

ipilimumab: anti-CTLA4 immune checkpoint inhibitor antibody
median PFS (melanoma): 2.9 months

CCOc1cc(/C=C2/C(=O)N(c3ccccc3)N=C2C)cc(Cl)c1OCC(=O)OC [SJ-172550]
binding affinity to MDM4 (MDM4): high affinity

C=CCn1c(=O)c2cnc(Nc3ccc(N4CCN(C)CC4)cc3)nc2n1-c1cccc(C(C)(C)O)n1 [MK1775, 2-allyl-1-(6-(2-hydroxypropan-2-yl)pyridin-2-yl)-6-((4-(4-methylpiperazin-1-yl)phenyl)amino)-1H-pyrazolo[3,4-d]pyrimidin-3(2H)-one]
sensitization to NK lysis [1]: sensitized | sensitization to NK lysis [2]: sensitized

nivolumab: anti-PD-1 immune checkpoint inhibitor antibody
median PFS (melanoma): 6.9 months
